The source of these data is US20230227427A1, “IL-17A MODULATORS” (SANOFI, priority 2010, published 2023).

This experiment has as its target T1, human recombinant IL-17A (Homo sapiens, UniProt Q16552).
T1 construct: purchased R&D Systems 7955-IL/CF
T1 sequence (Q16552 24-155): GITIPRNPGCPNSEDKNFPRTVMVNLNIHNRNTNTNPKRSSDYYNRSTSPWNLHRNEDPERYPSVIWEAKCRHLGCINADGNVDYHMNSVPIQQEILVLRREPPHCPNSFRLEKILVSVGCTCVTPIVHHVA
The experiment in a line: IL-17A AlphaLISA assay (block binding of IL-17A to its receptor IL-17RA). The note with it: compounds pre-incubated with the IL-17A for 24 h at room temperature; read-out: AlphaLISA pIC50 (converted). How it is done: The ability of the compounds to block binding of IL-17A to its receptor, IL-17RA, was analysed in a competition assay using AlphaLISA technology (Perkin Elmer). The assay is a bead based AlphaLISA where the IL-17RA is captured on the acceptor bead via an Fc tag and IL-17A is captured on the streptavidin donor bead via a biotinylated anti-IL17A antibody.
Assay buffer was prepared by adding 0.05% Tween-20 (v/v) and 0.1% BSA to Phosphate Buffered Saline (PBS). The assay was carried out in 384-well white low volume plates (Corning 4512). 10 µL of a 7.5 nM stock of human recombinant IL-17A (R&D Systems 7955-IL/CF) diluted in assay buffer was dispensed into the assay plate and compounds or DMSO vehicle control were added in a volume of 75 nL using a D300 dispenser (Hewlett Packard). The compounds were pre-incubated with the IL-17A for 24 h at room temperature (or for 30 min, where indicated by * in Table A below) prior to addition of 5 μL of a 5 nM stock of human recombinant IL-17RA/Fc chimera (R&D Systems 177-IR-100) diluted in assay buffer. The IL-17A was incubated with the receptor for a further 90 minutes at room temperature before addition of 5 μL of a mixture of anti-human Fc IgG acceptor beads (75 μg/mL, Perkin Elmer AL103C) and anti-IL-17A biotin conjugated antibody (5 nM, Enzo Life Sciences, ENZ-ABS278-0100) in assay buffer. After a further 30 min incubation at room temperature, 5 μL of streptavidin donor beads ([…], Perkin Elmer 6760002S) were added and the plate was incubated for 3 h in the dark.
The luminescence signal was measured using an Enspire plate reader (Perkin Elmer) with excitation at 680 nm and emission at 615 nm. Data were analysed using GraphPad Prism and fitted to a 4-parameter logistic equation. The IC50 values were calculated using the DMSO vehicle as the negative control and a high concentration (6 μM) of a reference IL-17A inhibitor as the positive control.
Activity of the Example compounds is reported as a PIC50 value in Table A.
For orientation: Bead proximity is the source of the signal in Alpha formats.

SMILES strings stand for the structures.

Turning to `COc1cnccc1-c1ccc(NC(=O)[C@@H](NC(=O)c2ccnn2C)C(c2ccccc2)c2ccccc2)cc1OC` [Example 47, (S)—N-(1-((3-methoxy-4-(3-methoxypyridin-4-yl)phenyl)amino)-1-oxo-3,3-diphenylpropan-2-yl)-1-methyl-1H-pyrazole-5-carboxamide], the IC50 is 0.0251 µM.
For the compound `Cn1nccc1C(=O)N[C@H](C(=O)Nc1ccc(-c2ccc(=O)n(C)n2)c(F)c1)C(c1ccccc1)c1ccccc1` [Example 48, (S)—N-(1-((3-fluoro-4-(1-methyl-6-oxo-1,6-dihydropyridazin-3-yl)phenyl)amino)-1-oxo-3,3-diphenylpropan-2-yl)-1-methyl-1H-pyrazole-5-carboxamide], the IC50 was 0.158 µM.
Next, `Cn1nccc1C(=O)N[C@H](C(=O)Nc1ccc(-c2ccc(=O)[nH]c2)cc1)C(c1ccccc1)c1ccccc1` [Example 49, (S)-1-methyl-N-(1-oxo-1-((4-(6-oxo-1,6-dihydropyridin-3-yl)phenyl)amino)-3,3-diphenylpropan-2-yl)-1H-pyrazole-5-carboxamide]: 0.1 µM; `Cc1cc(=O)[nH]cc1-c1ccc(NC(=O)[C@@H](NC(=O)c2ccnn2C)C(c2ccccc2)c2ccccc2)cc1` [Example 50, (S)-1-methyl-N-(1-((4-(4-methyl-6-oxo-1,6-dihydropyridin-3-yl)phenyl)amino)-1-oxo-3,3-diphenylpropan-2-yl)-1H-pyrazole-5-carboxamide]: 0.0398 µM.
For the compound `Cn1nccc1C(=O)N[C@H](C(=O)Nc1ccc(-c2ccc(=O)n(C)c2)cc1)C(c1ccccc1)c1ccccc1` [Example 51, (S)-1-methyl-N-(1-((4-(1-methyl-6-oxo-1,6-dihydropyridin-3-yl)phenyl)amino)-1-oxo-3,3-diphenylpropan-2-yl)-1H-pyrazole-5-carboxamide], the IC50 is 0.0251 µM.
On to `Cn1nccc1C(=O)N[C@H](C(=O)Nc1ccc(-c2c[nH]c(=O)c3[nH]ccc23)cc1)C(c1ccccc1)c1ccccc1` [Example 52, (S)-1-methyl-N-(1-oxo-1-((4-(7-oxo-6,7-dihydro-1H-pyrrolo[2,3-c]pyridin-4-yl)phenyl)amino)-3,3-diphenylpropan-2-yl)-1H-pyrazole-5-carboxamide], for which the IC50 was 0.0126 µM.
Regarding `COc1cc(NC(=O)[C@@H](NC(=O)c2ccnn2C)C(c2ccccc2)c2ccccc2)ccc1-c1ccncc1CO` [Example 53, (S)—N-(1-((4-(3-(hydroxymethyl)pyridin-4-yl)-3-methoxyphenyl)amino)-1-oxo-3,3-diphenylpropan-2-yl)-1-methyl-1H-pyrazole-5-carboxamide], the IC50 was 0.251 µM.
Take `Cc1c(-c2ccc(NC(=O)[C@@H](NC(=O)c3ccnn3C)C(c3ccccc3)c3ccccc3)cc2C(F)(F)F)ccc(=O)n1C` [Example 54, (S)—N-(1-((4-(1,2-dimethyl-6-oxo-1,6-dihydropyridin-3-yl)-3-(trifluoromethyl)phenyl)amino)-1-oxo-3,3-diphenylpropan-2-yl)-1-methyl-1H-pyrazole-5-carboxamide]: the IC50 is 0.316 µM.
As for `Cc1cncc(C)c1-c1ccc(NC(=O)[C@@H](NC(=O)c2ccnn2C)C(c2ccccc2)c2ccccc2)cc1Cl` [Example 55, (S)—N-(1-((3-chloro-4-(3,5-dimethylpyridin-4-yl)phenyl)amino)-1-oxo-3,3-diphenylpropan-2-yl)-1-methyl-1H-pyrazole-5-carboxamide], the IC50 was 0.1 µM.
Regarding `Cc1cc(-c2ccc(NC(=O)[C@@H](NC(=O)c3ccnn3C)C(c3ccccc3)c3ccccc3)cc2F)c(C)cn1` [Example 56, (S)—N-(1-((4-(2,5-dimethylpyridin-4-yl)-3-fluorophenyl)amino)-1-oxo-3,3-diphenylpropan-2-yl)-1-methyl-1H-pyrazole-5-carboxamide], the IC50 was 0.1 µM.
Turning to `Cc1nccc(-c2ccc(NC(=O)[C@@H](NC(=O)c3ccnn3C)C(c3ccccc3)c3ccccc3)cc2F)c1C` [Example 57, (S)—N-(1-((4-(2,3-dimethylpyridin-4-yl)-3-fluorophenyl)amino)-1-oxo-3,3-diphenylpropan-2-yl)-1-methyl-1H-pyrazole-5-carboxamide], the IC50 was 0.126 µM.
As for `Cn1nccc1C(=O)N[C@H](C(=O)Nc1ccc(-c2ccc(=O)[nH]n2)c(F)c1)C(c1ccccc1)c1ccccc1` [Example 58, (S)—N-(1-((3-fluoro-4-(6-oxo-1,6-dihydropyridazin-3-yl)phenyl)amino)-1-oxo-3,3-diphenylpropan-2-yl)-1-methyl-1H-pyrazole-5-carboxamide], the figure is 0.316 µM; as for `CCn1nccc1C(=O)N[C@H](C(=O)Nc1ccc(-c2c[nH]nc2C)c(F)c1)C(c1ccccc1)c1ccccc1` [Example 59, (S)-1-ethyl-N-(1-((3-fluoro-4-(3-methyl-1H-pyrazol-4-yl)phenyl)amino)-1-oxo-3,3-diphenylpropan-2-yl)-1H-pyrazole-5-carboxamide], 0.1 µM.
As for `Cc1noc(C)c1-c1ccc(NC(=O)[C@@H](NC(=O)c2ccnn2C)C(c2ccccc2)c2ccccc2)cc1F` [Example 60, (S)—N-(1-((4-(3,5-dimethylisoxazol-4-yl)-3-fluorophenyl)amino)-1-oxo-3,3-diphenylpropan-2-yl)-1-methyl-1H-pyrazole-5-carboxamide], the figure is 0.0398 µM; as for `CCn1nccc1C(=O)N[C@H](C(=O)Nc1ccc(-c2c(C)noc2C)c(F)c1)C(c1ccccc1)c1ccccc1` [Example 61, (S)—N-(1-((4-(3,5-dimethylisoxazol-4-yl)-3-fluorophenyl)amino)-1-oxo-3,3-diphenylpropan-2-yl)-1-ethyl-1H-pyrazole-5-carboxamide], 0.0398 µM; as for `Cn1nccc1C(=O)N[C@H](C(=O)Nc1ccc(-c2cn[nH]c2)c(F)c1)C(c1ccccc1)c1ccccc1` [Example 62, (S)—N-(1-((3-fluoro-4-(1H-pyrazol-4-yl)phenyl)amino)-1-oxo-3,3-diphenylpropan-2-yl)-1-methyl-1H-pyrazole-5-carboxamide], 0.794 µM.
For the compound `Cn1nccc1C(=O)N[C@H](C(=O)Nc1ccc(-c2cnc(=O)n(C)c2)c(F)c1)C(c1ccccc1)c1ccccc1` [Example 63, (S)—N-(1-((3-fluoro-4-(1-methyl-2-oxo-1,2-dihydropyrimidin-5-yl)phenyl)amino)-1-oxo-3,3-diphenylpropan-2-yl)-1-methyl-1H-pyrazole-5-carboxamide], the IC50 is 0.158 µM.
Consider `Cn1nccc1C(=O)N[C@H](C(=O)Nc1ccc(-c2cnc(=O)[nH]c2)c(F)c1)C(c1ccccc1)c1ccccc1` [Example 64, (S)—N-(1-((3-fluoro-4-(2-oxo-1,2-dihydropyrimidin-5-yl)phenyl)amino)-1-oxo-3,3-diphenylpropan-2-yl)-1-methyl-1H-pyrazole-5-carboxamide], for which the IC50 is 0.398 µM.
As for `Cc1n[nH]cc1-c1ccc(NC(=O)[C@@H](NC(=O)c2ccnn2C)C(c2ccccc2)c2ccccc2)cc1F` [Example 65, (S)—N-(1-((3-fluoro-4-(3-methyl-1H-pyrazol-4-yl)phenyl)amino)-1-oxo-3,3-diphenylpropan-2-yl)-1-methyl-1H-pyrazole-5-carboxamide], the figure is 0.0501 µM; as for `Cn1nccc1C(=O)N[C@H](C(=O)Nc1ccc(-c2c[nH]c(=O)c3cccnc23)c(F)c1)C(c1ccccc1)c1ccccc1` [Example 66, (S)—N-(1-((3-fluoro-4-(5-oxo-5,6-dihydro-1,6-naphthyridin-8-yl)phenyl)amino)-1-oxo-3,3-diphenylpropan-2-yl)-1-methyl-1H-pyrazole-5-carboxamide], 0.0251 µM.
